# Laboratory results from US20220152031A1, “PYRIDAZINONES AND METHODS OF USE THEREOF” (Goldfinch Bio, Inc., priority 2019, published 2022).
# Where two headings read alike, the source gives them in different places.
# Biological target: T1, TRPC4 (Homo sapiens, UniProt Q9UBN4)
# T1 construct: expressed in transfected cells
# T1 sequence (Q9UBN4 1-982 isoform Q9UBN4-5): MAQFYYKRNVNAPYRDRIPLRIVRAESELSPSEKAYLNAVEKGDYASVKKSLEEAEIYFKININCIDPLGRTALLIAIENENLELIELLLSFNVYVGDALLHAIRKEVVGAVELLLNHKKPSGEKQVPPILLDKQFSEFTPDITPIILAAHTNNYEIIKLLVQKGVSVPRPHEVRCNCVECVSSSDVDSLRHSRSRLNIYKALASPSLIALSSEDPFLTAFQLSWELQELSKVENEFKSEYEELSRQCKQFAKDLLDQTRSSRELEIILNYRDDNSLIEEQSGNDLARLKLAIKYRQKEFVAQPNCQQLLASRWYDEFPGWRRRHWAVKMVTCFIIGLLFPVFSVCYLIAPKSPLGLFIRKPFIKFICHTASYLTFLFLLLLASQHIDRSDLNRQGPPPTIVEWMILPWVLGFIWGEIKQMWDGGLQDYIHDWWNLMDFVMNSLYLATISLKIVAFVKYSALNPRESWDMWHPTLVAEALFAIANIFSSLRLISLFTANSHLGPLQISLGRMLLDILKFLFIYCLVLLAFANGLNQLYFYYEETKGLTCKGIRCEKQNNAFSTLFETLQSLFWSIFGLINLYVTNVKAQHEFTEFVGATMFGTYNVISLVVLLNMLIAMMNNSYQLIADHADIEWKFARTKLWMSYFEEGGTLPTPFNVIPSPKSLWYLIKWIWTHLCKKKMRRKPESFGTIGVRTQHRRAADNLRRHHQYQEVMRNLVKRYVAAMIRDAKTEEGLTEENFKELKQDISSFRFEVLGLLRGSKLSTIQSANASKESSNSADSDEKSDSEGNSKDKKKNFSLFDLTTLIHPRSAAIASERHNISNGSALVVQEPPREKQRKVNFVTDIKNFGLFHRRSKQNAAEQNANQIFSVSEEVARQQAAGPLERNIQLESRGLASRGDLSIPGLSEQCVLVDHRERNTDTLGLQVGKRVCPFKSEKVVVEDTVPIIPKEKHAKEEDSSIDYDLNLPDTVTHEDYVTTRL
# Experiment: TRPC4 activity assay (FLIPR calcium fluorescence, HEK-TREx hTRPC4 cells)
# Type: cell-based
# Experimental: ICLN-1694 cells (HEK-TREx hTRPC4) expressing TRPC4 were generated as follows. Commercially available HekTrex-293 cells were seeded at 0.7×10^6 cells/well in a 1×6-well plate 24 hrs prior to transfection using 2 mL cell growth media containing no antibiotics (lx DMEM/high glucose (Hyclone #SH30022.02); 10% fetal bovine serum (Sigma) 2 mM sodium pyruvate, 10 mM HEPES). […] On day 2, 2 μg of plasmid DNA plus 6 μl of Xtreme-GENE HP reagent in Optimem (200 μl total volume) was prepared and incubated for 15 min at room temperature. This plasmid solution was then gently overlayed dropwise onto each well and the plate was gently swirled to mix complex with the media for approximately 30 seconds. Transfected cells were incubated at 37° C. in a 10% CO2 incubator for 24 hrs. The transfected cells were harvested and transferred into 2×150 mm dishes containing cell growth media with no antibiotics at 37° C.
# The next day selection was initiated to generate a stable pool by adding cell growth media containing 150 μg/mL Hygromycin and 5 μg/mL Blasticidin and cells were allowed to grow. Media with the selection agent was changed every 1-2 days as needed to remove dead cells. After 7 days, the hygromycin concentration was reduced to 75 μg/mL and cells growth was allowed to continue.
# Single clones were selected as follows. The stable pool was diluted to 10 cells/mL and seeded (100 μl/well) into 24×96 well plates (˜1 cell/well) and allowed to grow for 7 days in cell growth media. Fresh media (100 μl) was added and the cells allowed to grow for another 1-2 weeks and then stored frozen or used immediately.
# 10-point dose response curves were generated using the Echo-550 acoustic dispenser. Compound source plates were made by serially diluting compound stocks to create 10 mM, 1 mM, and 0.1 mM solutions in DMSO into Echo-certified LDV plates. The Echo then serially spotted 100% DMSO stock solutions into source dose response plates to generate a 4-fold dilution scheme. 100% DMSO was added to the spotted dose response plates to bring the final volume to 5 μl. 300 nl of the dose response stock plate was then spotted into pre-incubation and stimulation assay plates. 50 μl of pre-incubation buffer and 100 μl of stimulation buffer was then added to the plates resulting in a final assay test concentration range of 30 μM to 0.0001 μM with a final DMSO concentration of 0.3%.
# ICLN-1694 cells (HEK-TREx hTRPC4) were plated onto 384 well, black pdl-coated microplates and maintained in cell growth media supplemented with 1 μg/mL tetracycline the day prior to use for experiments. TRPC4 expression was induced by the application of 1 μg/mL tetracycline at the time of plating. […] Cells were incubated at room temperature, protected from light, for 60-90 minutes. After the incubation period, the dye was removed and replaced with 10 μl of EBSS. Cell, pre-incubation and stimulation plates were loaded onto the FLIPR-II and the assay was initiated. The FLIPR measured a 10 second baseline and then added 10 μl of 2× compounds (or controls). Changes in fluorescence were monitored for an additional 5 minutes. After a 5 minute pre-incubation, 20 μl of 2× Englerin A (with 1× compound or controls) was added to the cell plate. The final Engerlin A stimulation concentration in the assay was 100 nM. After the Englerin A addition, changes in fluorescence were monitored for an additional 5 minutes.
# Compound modulation of TRPC4 calcium response was determined as follows. After the Englerin A, fluorescence was monitored for a 5-minute period. The maximum relative fluorescence response (minus the control response of 1 μM of an internal control compound known to maximally block TRPC4 calcium response, the “REF INHIB” in the formula below) was captured and exported from the FLIPR.
# Compound effect is calculated as % inhibition using the following formula: […]
# wherein “RFU” is the relative fluorescent units.
# [1] = Table 5, HEK-TREx hTRPC4, read-out: TRPC4 FLIPR IC50
# [2] = Table 6, HEK-TREx hTRPC4, read-out: hTRPC4-FLIPR IC50
# [3] = Table 7, HEK-TREx hTRPC4, read-out: TRPC4-FLIPR IC50
IC50 [1],IC50 [2],IC50 [3],SMILES
0.01 to 1000 nM,0.01 to 1000 nM,–,"CCc1ncccc1[C@H](C)N1CCN(c2cn[nH]c(=O)c2Cl)CC1 [LY, 4-chloro-5-[4-[(1S)-1-(2-ethylpyridin-3-yl)ethyl]piperazin-1-yl]-2,3-dihydropyridazin-3-one]"
0.01 to 1000 nM,–,0.01 to 1000 nM,CN(C)C(=O)c1nc2c(n1Cc1ccccc1C(F)(F)F)CCN(c1cn[nH]c(=O)c1Cl)C2 [PW]
0.01 to 1000 nM,–,0.01 to 1000 nM,"NC(=O)c1nn(Cc2ccccc2C(F)(F)F)c2c1CN(c1cn[nH]c(=O)c1Cl)CC2 [OP, 5-(5-Chloro-6-oxo-1,6-dihydropyridazin-4-yl)-1-[[2-(trifluoromethyl)phenyl]methyl]-1H,4H,5H,6H,7H-pyrazolo[4,3-c]pyridine-3-carboxamide]"
–,–,0.01 to 1000 nM,"CN1CCN(Cc2nn(Cc3ccccc3C(F)F)c3c2CN(c2cn[nH]c(=O)c2Cl)CC3)CC1 [OU, 4-Chloro-5-(1-[[2-(difluoromethyl)phenyl]methyl]-3-[(4-methylpiperazin-1-yl)methyl]-1H,4H,5H,6H,7H-pyrazolo[4,3-c]pyridin-5-yl)-2,3-dihydropyridazin-3-one]"
0.01 to 1000 nM,–,0.01 to 1000 nM,"C[C@@H]1Cc2c(nnn2[C@H](C)c2ccccc2C(F)(F)F)CN1c1cn[nH]c(=O)c1Cl [MX, 4-chloro-5-[(6R)-6-methyl-1-[(1R)-1-[2-(trifluoromethyl)phenyl]ethyl]-1H,4H,5H,6H,7H-[1,2,3]triazolo[4,5-c]pyridin-5-yl]-2,3-dihydropyridazin-3-one]"
–,–,0.01 to 1000 nM,CN1CCN(C(=O)c2nn(Cc3ccccc3C(F)F)c3c2CN(c2cn[nH]c(=O)c2Cl)CC3)CC1 [OM]
0.01 to 1000 nM,–,–,O=C1CN(c2cn[nH]c(=O)c2Cl)CCN1Cc1ccccc1C(F)(F)F [AO]
0.01 to 1000 nM,0.01 to 1000 nM,–,"CCc1ncccc1N(CC)C1CCN(c2cn[nH]c(=O)c2Cl)CC1 [LW, 4-chloro-5-[4-[ethyl(2-ethylpyridin-3-yl)amino]piperidin-1-yl]-2,3-dihydropyridazin-3-one]"
0.01 to 1000 nM,–,0.01 to 1000 nM,CN(c1ncc2c(n1)CN(c1cn[nH]c(=O)c1Cl)C2)c1ccccc1C(F)(F)F [QM]
–,0.01 to 1000 nM,–,"CC(c1ccc(F)cc1C(F)(F)F)N1CCN(c2cn[nH]c(=O)c2Cl)CC1=O (single isomer, unassigned) [MF]"
